Marks after values point to notes of the source that are not given here. Ends that are not written are not given here.

Data on eleven substances can be found in patent US7572454B2, “T helper cell epitopes” (priority 1999, dated 2009).

Assay [1] has as its system LHRH. As to the kind of experiment: Trial K9-5: antibody response to LHRH by ELISA. It counts as in vivo, dog. In general terms: ELISA stands for enzyme-linked immunosorbent assay.
Assay [2] concerns LHRH. As to the kind of experiment: Trial in BALB/c mice: antibody response to LHRH by ELISA. The format is in vivo. The following applies: for antibody titres to LHRH: BALB/c mice. As for the experimental part: The canine vaccines with CDV-F derived Th-epitopes and LHRH used in Example 3 were also used to immunise BALB/c mice to investigate if the Th-epitopes would be functional in a different animal species.
All vaccines were formulated as for Example 3 except that they were diluted further so that 100 μl doses contained 2.7 nmoles of peptide and 10 μg of Iscomatrix™ and thiomersol as preservative.
Mice were vaccinated with 100 μl of the vaccine at the base of tail. Vaccinations were given at 0 and 4 weeks and animals bled at intervals after each vaccination from the retro-orbital plexus. Effective T-cell help was determined by measuring the antibody response to LHRH by ELISA.

The subject of assay [3] is PBMCs from dogs immunised with CDV. As to the kind of experiment: T-cell proliferation after in vitro stimulation of PBMC with peptide pools, tested with autologous APCs and single peptides. The format is cell-based, dog. As for the experimental part: An alternate strategy was used to increase the precursor frequency of specific T cells recognising the CDV peptides. Fresh PBMCs obtained from these hyperimmunised dogs were subjected to stimulation in vitro with pools of all 94 peptides for 30 minutes at 37° C. The cells were then washed to remove any excess peptides and cultured for 7 days. This population of T cells was then tested with autologous APCs with every single peptide as the antigen.
To confirm this observation, the same four dogs were bled again, five weeks after receiving the dose of killed virus. The PBMCs were stimulated in vitro with pools of either all 94 peptides or peptides 21-40 (because most of the activity was in this region) and after 7 days of culture the stimulated T cells were tested against individual peptides. Significant stimulatory indices were obtained with all peptides, confirming the above results. Four more dogs which received only one dose of 3 in 1 vaccine were tested using the in vitro stimulation method and all four dogs responded to the majority of peptides shown in Table 2.
Once again the same peptides and one additional peptide P32 were tested on cells from additional dogs.

The subject of assay [4] is LHRH. As to the kind of experiment: Trial K9-8: antibody response to LHRH by ELISA. It counts as in vivo, dog. The following applies: Trial K9-8; T-cell-LHRH constructs named by their T-cell epitope. As for the experimental part: A total of 35 dogs mixed sex were used in this trial. All had been previously vaccinated with a live CDV vaccine but had not been vaccinated against LHRH.
The T-Helper epitopes were linked to a truncated form of LHRH, containing amino acids 2 to 10 of the native 10 amino acid sequence, as shown below:
All vaccines were formulated as for Example 2, ie each 1 mL dose of vaccine contained 40nmoles of peptide, 150 μg Iscomatrix™, and thiomersal as preservative.
Where dogs were vaccinated with a pool of peptides, the concentration of each peptide was adjusted to give equal concentrations and a total amount of 40 nmoles of LHRH epitope per 1 mL dose.
All dogs were vaccinated with a 1 mL dose, delivered in the scruff of the neck. Vaccinations were given at 0 and 4 weeks and venous blood samples were obtained at intervals during the trial.
Effective T-cell help was determined by measuring the antibody response to LHRH by ELISA. Biological effectiveness of the peptide based vaccine was determined by measuring the levels of progesterone in female dogs and testosterone in male dogs.

[5] abbreviates: Table 1, Beagle Foxhound (Dog #18), hyperimmunised, PBMC stimulated with pool of all 94 peptides, 7 days culture.
Where [6] appears, read: Table 1, Beagle Foxhound (Dog #19).
[7] abbreviates: Table 1, Beagle Foxhound (Dog #20).
[8] abbreviates: Table 1, Beagle Foxhound (Dog #21).
The mark [9] stands for this setting: Table 2, Beagle Foxhound (Dog #71), one dose of 3 in 1 vaccine.
Where [10] appears, read: Table 3, Kelpie Foxhound (Dog #125).
The mark [11] stands for this setting: Table 2, Beagle Foxhound (Dog #72), one dose of 3 in 1 vaccine.

For the substance “ALNNRFQIKGVELKS-(NANP)3 (ALNNRFQIKGVELKSNANPNANPNANP; synthetic control peptide)”, in assay [1] (group average), the “Anti LHRH Titres, 2 wks post boost, Average” value is recorded as 1978; the “Anti LHRH Titres, 6 wks post boost, Average” value came out at 1941; the “Anti LHRH Titres, Prebleeds, Average” value was 1794. Further, in assay [1] (group range), the “Anti LHRH Titres, 2 wks post boost, Range” value is reported as 1975-1982; the “Anti LHRH Titres, 6 wks post boost, Range” value was 1936-1947; the “Anti LHRH Titres, Prebleeds, Range” value is 1258-2559.
“PRTSDRPVSYTMNRTRS (canine distemper virus; synthetic peptide from canine distemper virus fusion protein (CDV-F) designated peptide P8)”: the “antibody titres to LHRH” value in assay [2] was “undetectable levels”. The Stimulatory index in assay [3] (Table 2, Beagle Foxhound (Dog #70), one dose of 3 in 1 vaccine) was 2.2; in assay [3] (Table 5, Border Collie), 2; in assay [3] (Table 5, Fox Terrier), under 2; in assay [3] (Table 5, Grey hound), 2; in assay [3] (Table 5, Kelpie Pointer), 2.8; in assay [3] (Table 5, Poodle Shitzu) it was 100. In addition, in assay [3] (Table 5, Terrier Cross), the Stimulatory index is recorded as under 2.
With “SSKTQTHTQQDRPPQPS (canine distemper virus; synthetic peptide from canine distemper virus fusion protein (CDV-F) designated peptide P2)”, the “antibody titres to LHRH” value in assay [2] is “undetectable levels”. Moreover, the “antibody responses to LHRH” value in assay [4] was “Low to undetectable antibody responses”. In addition, the Stimulatory index in assay [3] (setting [5]) is on record as 2*; in assay [3] (setting [6]) it was under 2; in assay [3] (setting [7]), 8; in assay [3] (setting [8]) it was 3.9; in assay [3] (Table 5, Border Collie), 2; in assay [3] (Table 5, Fox Terrier) it was under 2. Besides, the Stimulatory index is under 2 in assay [3] (Table 5, Grey hound); 2.6 in assay [3] (Table 5, Kelpie Pointer); 140 in assay [3] (Table 5, Poodle Shitzu); under 2 in assay [3] (Table 5, Terrier Cross).
Regarding “P8-LHRH: T-helper epitope P8 linked to truncated LHRH, amino acids 2 to 10 (SEQ ID NO: 29) (HWSYGLRPG; not fully specified (N-terminus); ends and bridges not checked; also: linked to T-helper epitope P8; listed as Homo sapiens) [Peptide P8-LHRH]”, the Anti-LHRH antibody titre in assay [2] (2 weeks post second vaccination, Mouse 1) is on record as under 100; in assay [2] (2 weeks post second vaccination, Mouse 2) it was under 100; in assay [2] (2 weeks post second vaccination, Mouse 3), under 100; in assay [2] (2 weeks post second vaccination, Mouse 4), under 100; in assay [2] (4 weeks post first vaccination, Mouse 1, 2.7 nmoles peptide, base of tail) it was under 100; in assay [2] (4 weeks post first vaccination, Mouse 2) it was under 100. Besides, the Anti-LHRH antibody titre was under 100 in assay [2] (4 weeks post first vaccination, Mouse 3) and under 100 in assay [2] (4 weeks post first vaccination, Mouse 4). In addition, the “antibody responses to LHRH” value in assay [4] is “Low to undetectable antibody responses”.
As for “PRYIATNGYLISNFDES (canine distemper virus; synthetic peptide from canine distemper virus fusion protein (CDV-F) designated peptide P62)”, the “antibody titres to LHRH” value in assay [2] was “undetectable levels”. In addition, in assay [4], the “antibody responses to LHRH” value was “Strong antibody responses”. In addition, the Stimulatory index in assay [3] (setting [5]) is recorded as under 2; in assay [3] (setting [6]) it was 51; in assay [3] (setting [7]), 5.6; in assay [3] (setting [8]) it was 4.2; in assay [3] (setting [9]) it was 3; in assay [3] (setting [10]) it was 2.4. Further, the Stimulatory index in assay [3] (Table 5, Border Collie) is recorded as under 2; in assay [3] (Table 5, Fox Terrier), under 2; in assay [3] (Table 5, Grey hound), under 2; in assay [3] (Table 5, Kelpie Pointer), under 2; in assay [3] (Table 5, Poodle Shitzu), 24; in assay [3] (Table 5, Terrier Cross) it was under 2.
In assay [3] (setting [10]), “YKIMTRPSHQYLVIKLI (canine distemper virus; synthetic peptide from canine distemper virus fusion protein (CDV-F) designated peptide P23)” came in with a Stimulatory index of 3.2.
As to “SPDKLLTFIASDTCPLV (canine distemper virus; synthetic peptide from canine distemper virus fusion protein (CDV-F) designated peptide P75)”, the “antibody titres to LHRH” value in assay [2] is “low antibody titres”. Also, the “antibody responses to LHRH” value in assay [4] is recorded as “Strong antibody responses”. In addition, the Stimulatory index in assay [3] (Table 4, Beagle Foxhound #18) is listed as 2.5; in assay [3] (Table 4, Beagle Foxhound #21), 7.2; in assay [3] (Table 4, Poodle Shitzu), 10; in assay [3] (Table 5, Border Collie) it was under 2; in assay [3] (Table 5, Fox Terrier), under 2; in assay [3] (Table 5, Grey hound) it was under 2. Also, the Stimulatory index in assay [3] (Table 5, Kelpie Pointer) is given as under 2; in assay [3] (Table 5, Poodle Shitzu) it was 10; in assay [3] (Table 5, Terrier Cross), under 2. Besides, the “reaction with peripheral blood mononuclear cells” value in assay [3] (dogs of various breeds immunised with CDV) is “react strongly”.
Turning to “QSLRTSLEQSNKAIEEI (canine distemper virus; synthetic peptide from canine distemper virus fusion protein (CDV-F) designated peptide P38)”, the Stimulatory index in assay [3] (setting [5]) was 2.8; in assay [3] (setting [6]), 6.7; in assay [3] (setting [7]) it was 3.6; in assay [3] (setting [8]), 4.2; in assay [3] (setting [10]) it was 2.2.
As to “SHQYLVIKLIPNASLIE (canine distemper virus; synthetic peptide from canine distemper virus fusion protein (CDV-F) designated peptide P24)”, the Stimulatory index in assay [3] (setting [5]) was 5.8; in assay [3] (setting [6]), 9.9; in assay [3] (setting [7]), 2.8; in assay [3] (setting [8]), 29; in assay [3] (setting [9]), 3.2; in assay [3] (setting [11]) it was 2.2.
Turning to “FAGVVLAGVALGVATAA (canine distemper virus; synthetic peptide from canine distemper virus fusion protein (CDV-F) designated peptide P33)”, the Stimulatory index in assay [3] (setting [11]) is 1.6; in assay [3] (setting [10]), 6; in assay [3] (Table 5, Border Collie) it was 2; in assay [3] (Table 5, Fox Terrier), under 2; in assay [3] (Table 5, Grey hound) it was under 2; in assay [3] (Table 5, Kelpie Pointer), 2. Besides, the Stimulatory index is on record as under 2 in assay [3] (Table 5, Poodle Shitzu) and under 2 in assay [3] (Table 5, Terrier Cross).
In the case of “GIALHQSNLNAQAIQSL (canine distemper virus; synthetic peptide from canine distemper virus fusion protein (CDV-F) designated peptide P36)”, the Stimulatory index turned out to be 6.7 in assay [3] (setting [5]); 3.7 in assay [3] (setting [6]); 3.3 in assay [3] (setting [7]); 16 in assay [3] (setting [8]); 3 in assay [3] (setting [10]).
